Calls of active or inactive are those of the source. The rule behind the calls is not given here.
Key:
Candida albicans [1] = experiment: Antifungal activity against Candida albicans assessed as lowest dose level for total inhibition of fungal growth; assay type: functional
Mucor = experiment: Antifungal activity against Mucor species assessed as lowest dose level for total inhibition of fungal growth; assay type: functional
Aspergillus fumigatus = experiment: Antifungal activity against Aspergillus fumigatus assessed as lowest dose level for total inhibition of fungal growth; assay type: functional
Sporothrix schenckii = experiment: Antifungal activity against Sporothrix schenckii assessed as lowest dose level for total inhibition of fungal growth; assay type: functional
Saprolegnia = experiment: Antifungal activity against Saprolegnia species assessed as lowest dose level for total inhibition of fungal growth; assay type: functional
Phialophora verrucosa = experiment: Antifungal activity against Phialophora verrucosa assessed as lowest dose level for total inhibition of fungal growth; assay type: functional
[2] = test system: Erysipelothrix rhusiopathiae; experiment: Antibacterial activity against Erysipelothrix insidiosa assessed as lowest dose level for total inhibition of bacterial growth; assay type: functional
[3] = test system: Staphylococcus haemolyticus; experiment: Antibacterial activity against Staphylococcus haemolyticus assessed as lowest dose level for total inhibition of bacterial growth; assay type: functional
Streptococcus pyogenes = experiment: Antibacterial activity against Streptococcus pyogenes assessed as lowest dose level for total inhibition of bacterial growth; assay type: functional
Candida albicans [4] = experiment: In vivo antifungal activity against Candida albicans topically infected in guinea pig assessed as animal cured at 10 mg/kg, po; assay type: functional, organism-based; parameters: dose 10 mg/kg
Microsporum canis = experiment: Antifungal activity against Microsporum canis assessed as lowest dose level for total inhibition of fungal growth; assay type: functional
[5] = test system: Trichophyton mentagrophytes; experiment: Antifungal activity against Trichophyton mentagrophytes assessed as lowest dose level for total inhibition of fungal growth; assay type: functional
Trichophyton rubrum = experiment: Antifungal activity against Trichophyton rubrum assessed as lowest dose level for total inhibition of fungal growth; assay type: functional
Cryptococcus neoformans = experiment: Antifungal activity against Cryptococcus neoformans assessed as lowest dose level for total inhibition of fungal growth; assay type: functional
Candida tropicalis = experiment: Antifungal activity against Candida tropicalis assessed as lowest dose level for total inhibition of fungal growth; assay type: functional

SMILES | Activity (Candida albicans [1]) [µg/mL] | Activity (Mucor) [µg/mL] | Activity (Aspergillus fumigatus) [µg/mL] | Activity (Sporothrix schenckii) [µg/mL] | Activity (Saprolegnia) [µg/mL] | Activity (Phialophora verrucosa) [µg/mL] | Activity [2] [µg/mL] | Activity [3] [µg/mL] | Activity (Streptococcus pyogenes) [µg/mL] | Activity (Candida albicans [4]) | Activity (Microsporum canis) [µg/mL] | Activity [5] [µg/mL] | Activity (Trichophyton rubrum) [µg/mL] | Activity (Cryptococcus neoformans) [µg/mL] | Activity (Candida tropicalis) [µg/mL]
Clc1ccc(CC(Cn2ccnc2)c2c(Cl)cccc2Cl)cc1.O=[N+]([O-])O (stereo not given) | 100 | >100 | 100 | 100 | 100 | 100 | <1 | 100 | <1 | inactive | <1 | <1 | <1 | 100 | >100
Clc1ccc(CC(Cn2ccnc2)c2ccccc2Cl)c(Cl)c1.O=[N+]([O-])O (stereo not given) | 100 | 100 | 100 | 10 | 100 | 100 | 10 | 100 | <1 | inactive | 10 | <1 | <1 | <1 | >100
Clc1ccccc1CC(Cn1ccnc1)c1ccccc1Cl.O=[N+]([O-])O (stereo not given) | 100 | 100 | 10 | 10 | 100 | 100 | 1 | 100 | <1 | inactive | 10 | <1 | <1 | <1 | >100
Clc1ccc(CC(Cn2ccnc2)c2ccc(Cl)cc2Cl)cc1.O=[N+]([O-])O (stereo not given) | 100 | 100 | 100 | 10 | <1 | 100 | <1 | 10 | <1 | inactive | 10 | <1 | <1 | <1 | 100
COc1ccc(CCC(Cn2ccnc2)c2ccc(Cl)cc2Cl)cc1.O=[N+]([O-])O (stereo not given) | >100 | 100 | 100 | 10 | 10 | 10 | <1 | 1 | <1 | inactive | 10 | <1 | <1 | <1 | >100
Clc1ccc(C(Cc2ccccc2Cl)Cn2ccnc2)cc1.O=[N+]([O-])O (stereo not given) | 100 | 10 | 100 | 100 | 100 | 100 | 1 | 10 | 10 | inactive | 10 | <1 | <1 | <1 | 100
Clc1ccc(C(Cc2ccccc2)Cn2ccnc2)c(Cl)c1.O=[N+]([O-])O (stereo not given) | 100 | 100 | 100 | 10 | 10 | 10 | <1 | 10 | <1 | inactive | 10 | <1 | <1 | <1 | 10
Clc1ccc(CC(Cn2ccnc2)c2c(Cl)cccc2Cl)c(Cl)c1.O=[N+]([O-])O (stereo not given) | >100 | 100 | 100 | 10 | 100 | >100 | 1 | 10 | <1 | inactive | 10 | 10 | <1 | 10 | >100
Clc1ccc(CC(Cn2ccnc2)c2ccccc2Br)c(Cl)c1.O=[N+]([O-])O (stereo not given) | 10 | 10 | 10 | 10 | 100 | 100 | <1 | <1 | 10 | inactive | 10 | <1 | <1 | <1 | 100
Clc1ccc(CC(Cn2ccnc2)c2ccc(Cl)cc2Cl)c(Cl)c1.O=[N+]([O-])O (stereo not given) | 10 | 100 | 100 | <1 | 100 | 100 | <1 | 10 | <1 | inactive | 10 | <1 | <1 | <1 | 10
Clc1ccc(CCC(Cn2ccnc2)c2ccc(Cl)cc2Cl)c(Cl)c1.O=[N+]([O-])O (stereo not given) | >100 | >100 | 100 | 10 | 100 | >100 | <1 | 100 | <1 | inactive | 10 | <1 | <1 | <1 | >100
COc1ccc(CC(Cn2ccnc2)c2ccc(Cl)cc2Cl)cc1.O=[N+]([O-])O (stereo not given) | 10 | 10 | 100 | 10 | 100 | 10 | 1 | 10 | 1 | inactive | 100 | <1 | <1 | <1 | 10

From ChEMBL document CHEMBL3271999, “Antimycotic imidazoles. 2. Synthesis and antimycotic properties of 1-[2-(arylalkyl)-2-phenylethyl]-1H-imidazoles” (1977)
